This is an account of results in publication PMC5171706 (2016).

Experiment [1] concerns Pu24T (DNA, G4) TGAGGGTGGTGAGGGTGGGGAAGG
Kind of experiment: fluorescence titration of Piperine. The following applies: K+ (10 mM potassium phosphate, 50 mM KCl); pH 7.0, 25 °C; two-site saturation fit, Kd1 and Kd2 only in Figure 2 and Table S1.

Experiment [2] has the same test system. Kind of experiment: 1H NMR titration. To be noted: K+ (potassium phosphate); 298 K, 400 μM Piperine, H2O/D2O 9:1; Piperine resonances broaden.
For experiment [3] the test system is unchanged. Kind of experiment: UV melting at 295 nm. The following applies: K+ (10 mM potassium phosphate, 50 mM KCl); pH 7.0; derived from two Tm (75.0 and 79.0 °C); D/N = 2.0; 78.0 °C at D/N 1.0.
In experiment [4] the test system is tel22 (DNA, G4) AGGGTTAGGGTTAGGGTTAGGG
Kind of experiment: time-resolved fluorescence (lifetime). To be noted: K+ (10 mM potassium phosphate, 50 mM KCl); 40.0 μM Piperine, D/N 1.0 and 2.0; lifetime increases.

The subject of experiment [5] is Pu24T (DNA, G4) TGAGGGTGGTGAGGGTGGGGAAGG
Kind of experiment: gel mobility shift. The following applies: K+ (10 mM potassium phosphate, 50 mM KCl); 20 μM DNA, room temperature.

Experiment [6] concerns tel22 (DNA, G4) AGGGTTAGGGTTAGGGTTAGGG
Kind of experiment: fluorescence titration of Piperine. The following applies: K+ (10 mM potassium phosphate, 50 mM KCl); pH 7.0, 25 °C; two-site saturation fit, Kd1 and Kd2 only in Figure 2 and Table S1.

As to `O=C(/C=C/C=C/c1ccc2c(c1)OCO2)N1CCCCC1`, the Kd1 worked out at 2.5 nM in experiment [1] and 87.5 nM in experiment [6]. Moreover, the binding entry in experiment [2], in experiment [4] and in experiment [5] was “yes” throughout. Further, in experiment [3], the ΔTm (usually the shift of the melting midpoint relative to a reference) was determined as 4.0 °C.
